The source of these data is publication PMC6522912, “Evaluation of the published kinase inhibitor set to identify multiple inhibitors of bacterial ATP-dependent mur ligases” (Journal of Enzyme Inhibition and Medicinal Chemistry, 2019).

The target of assay [1] is E. coli MurC (Escherichia coli, UniProt P17952). Put plainly: Malachite green inhibition assay, MurC. It is filed as biochemical. The note with it: for remaining activity at 100 µM: 0.25 h.
Assay [2] addresses E. coli MurF (Escherichia coli, UniProt P11880). As to the kind of experiment: biochemical. Particulars: for remaining activity at 100 µM: 0.25 h, read-out: RA [%] at 100 µM MurF; for remaining activity at 100 µM / RA [%] at 100 µM MurF: Table S1, PKIS screening.
The target of assay [3] is E. coli MurD (Escherichia coli, UniProt P14900). Put plainly: biochemical. Particulars: for remaining activity at 100 µM: 0.25 h, Table S1, PKIS screening, read-out: RA [%] at 100 µM MurD. In a few lines: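 Orthophosphate released by E. coli MurD quantified by malachite green (Biomol green) absorbance at 650 nm after 15 min at 37 °C. Residual activity relative to DMSO-only controls.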

[4] abbreviates: Table S1, PKIS screening, read-out: RA [%] at 100 µM MurC.
[5] abbreviates: Table S3, aza stilbene compounds.

Where two headings read alike, the source gives them in different places.

Chain of E. coli MurF (P11880 whole entry): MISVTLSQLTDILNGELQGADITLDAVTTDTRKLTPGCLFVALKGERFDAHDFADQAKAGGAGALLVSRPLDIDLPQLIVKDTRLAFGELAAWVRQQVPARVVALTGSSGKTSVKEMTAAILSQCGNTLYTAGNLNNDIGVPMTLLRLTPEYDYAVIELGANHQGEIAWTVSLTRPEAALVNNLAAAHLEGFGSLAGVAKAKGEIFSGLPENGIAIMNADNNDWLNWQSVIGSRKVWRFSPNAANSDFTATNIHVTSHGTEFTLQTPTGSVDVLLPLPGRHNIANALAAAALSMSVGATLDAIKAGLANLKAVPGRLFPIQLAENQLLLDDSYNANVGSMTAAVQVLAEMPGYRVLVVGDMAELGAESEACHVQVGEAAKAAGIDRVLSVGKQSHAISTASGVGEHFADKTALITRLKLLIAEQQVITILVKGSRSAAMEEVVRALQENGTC
Chain of E. coli MurD (P14900 whole entry): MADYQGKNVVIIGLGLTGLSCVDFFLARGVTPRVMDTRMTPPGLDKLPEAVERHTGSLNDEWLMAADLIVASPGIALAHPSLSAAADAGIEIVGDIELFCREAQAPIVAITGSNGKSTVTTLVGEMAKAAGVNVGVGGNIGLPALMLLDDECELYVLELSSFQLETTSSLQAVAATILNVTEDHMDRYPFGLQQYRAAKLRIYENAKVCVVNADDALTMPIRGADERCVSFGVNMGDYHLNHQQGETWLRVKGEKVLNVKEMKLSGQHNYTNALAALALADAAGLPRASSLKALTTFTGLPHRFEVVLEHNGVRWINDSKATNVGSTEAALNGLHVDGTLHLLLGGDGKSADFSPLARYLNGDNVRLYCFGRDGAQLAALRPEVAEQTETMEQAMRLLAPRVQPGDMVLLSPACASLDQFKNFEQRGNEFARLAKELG
Chain of E. coli MurC (P17952 whole entry): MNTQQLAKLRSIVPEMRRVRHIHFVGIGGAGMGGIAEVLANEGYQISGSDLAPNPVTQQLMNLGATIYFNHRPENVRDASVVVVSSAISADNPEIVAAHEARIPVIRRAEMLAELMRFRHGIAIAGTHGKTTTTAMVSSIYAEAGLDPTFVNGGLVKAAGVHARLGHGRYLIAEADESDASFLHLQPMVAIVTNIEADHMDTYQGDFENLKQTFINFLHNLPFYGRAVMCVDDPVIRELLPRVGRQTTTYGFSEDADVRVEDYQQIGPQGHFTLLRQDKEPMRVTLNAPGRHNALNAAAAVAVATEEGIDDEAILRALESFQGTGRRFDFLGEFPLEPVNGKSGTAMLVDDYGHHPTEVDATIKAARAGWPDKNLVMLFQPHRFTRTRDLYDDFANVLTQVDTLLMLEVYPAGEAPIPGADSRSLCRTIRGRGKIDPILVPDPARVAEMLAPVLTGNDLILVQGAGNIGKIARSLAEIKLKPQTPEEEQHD

As to `COc1ccc2cc(-c3c(-c4ccncc4)nc(-c4ccc([S+](C)[O-])cc4)n3C)ccc2c1` (stereo not drawn) [SB-437013], the remaining activity at 100 µM in assay [1] (setting [4]) was 70%; in assay [2] it was 70%; in assay [3], 58%.

Take `CN1CCC(C(=O)Nc2n[nH]c3nnc(-c4ccccc4)cc23)CC1.Cl` [SB-678557-A]: the “RA [%] at 100 µM MurC” value in assay [1] (Table S1, PKIS screening) amounted to 74%. Further, the “RA [%] at 100 µM MurF” value in assay [2] is on record as 95%. Also, in assay [3], the “RA [%] at 100 µM MurD” value was determined as 76.

Turning to `CN(C)c1cc2c(Nc3ccc4c(cnn4Cc4ccccc4)c3)ncnc2cn1` [GW282974X], the results for the remaining activity at 100 µM in assay [1] (setting [4]), in assay [2] and in assay [3] were 77%, 55% and 70%, respectively.

Regarding `Cc1ccc2c(-c3ccnc(Nc4ccc5c(c4)OCCO5)n3)c(-c3ccc(C(F)(F)F)cc3)nn2n1` [GW832467X], the remaining activity at 100 µM is 22% in assay [1] (read-out: RA [%] at 100 µM MurC, Table S1, PKIS screening); 73% in assay [2]; 62% in assay [3].

Turning to `CS(=O)(=O)Nc1cccc(-c2ccc3c(NC(=O)C4CC4)n[nH]c3c2)c1` [SB-742864], the remaining activity at 100 µM in assay [1] (setting [4]) is 64%; in assay [2] it was 99%; in assay [3], 88%.

Turning to `NS(=O)(=O)c1ccc(-c2ccc3c(NC(=O)C4CC4)n[nH]c3c2)cc1` [SB-738482], the results for the remaining activity at 100 µM in assay [1] (setting [4]), in assay [2] and in assay [3] were 75%, 83% and 83%, respectively.

Regarding `Nc1nonc1-c1nc2cnccc2n1C1CC1` [SB-736302], the remaining activity at 100 µM came out at 92% in assay [1] (setting [4]), 77% in assay [2] and 100% in assay [3].

Take `COc1ccc2c(-c3ccnc(Nc4cccc(OC(F)(F)F)c4)n3)cnn2n1` [GW810372X]: the remaining activity at 100 µM is 46% in assay [1] (setting [4]), 73% in assay [2] and 70% in assay [3].

On to `c1cc(-c2cnn3nc(N4CCOCC4)ccc23)nc(NC2CC2)n1` [GW708336X], for which the figures for the remaining activity at 100 µM in assay [1] (setting [4]), in assay [2] and in assay [3] were 98%, 98% and 92%, respectively.

Consider `[O-][S+]1CCN(Cc2ccc(-c3ccc4ncnc(Nc5ccc(OCc6ccccc6)c(Cl)c5)c4c3)o2)CC1` [GW583373A], for which the results for the remaining activity at 100 µM in assay [1] (setting [4]), in assay [2] and in assay [3] were 62%, 60% and 59%, respectively.

On to `O=C1NC(=O)C(c2cccc(Cl)c2)=C1Nc1ccc(Cl)c(C(=O)O)c1` [SB-409513], for which the figures for the remaining activity at 100 µM in assay [1] (setting [4]), in assay [2] and in assay [3] were 94%, 78% and 88%, respectively.

`Nc1nccc(-c2c(-c3ccc(F)cc3)nn3cc(C(F)(F)F)ccc23)n1` [GW568326X]: the remaining activity at 100 µM in assay [1] (setting [4]) came out at 68%; in assay [2], 78%; in assay [3], 90%.

As for `O=C(Nc1n[nH]c2nc(-c3ccco3)c(Br)cc12)C1CC1` [SB-739452], the remaining activity at 100 µM in assay [1] (setting [4]) is 78%; in assay [2] it was 87%; in assay [3], 84%.

Regarding `Nc1nonc1-c1nc2cnccc2n1C1CCCCC1` [SB-734117], the remaining activity at 100 µM was 100% in assay [1] (setting [4]), 93% in assay [2] and 79% in assay [3].

As for `Cc1nnc(-c2ccc(C)c(-c3ccc(C(=O)NCc4ccc(Cl)cc4)cc3)c2)o1` [GW708893X], the remaining activity at 100 µM was 100% in assay [1] (setting [4]), 94% in assay [2] and 100% in assay [3].

For `NS(=O)(=O)c1cccc(-c2ccc3c(NC(=O)C4CC4)n[nH]c3c2)c1` [SB-741905], the remaining activity at 100 µM worked out at 72% in assay [1] (setting [4]), 88% in assay [2] and 98% in assay [3].

With `CC1=C(C(=O)Nc2ccc3[nH]ncc3c2)C(c2ccc3ccccc3c2)CC(=O)N1` (stereo not drawn) [GSK270822A], the remaining activity at 100 µM came out at 66% in assay [1] (setting [4]), 68% in assay [2] and 81% in assay [3].

On to `Cc1ccc(O)cc1Nc1ccnc2cc(-c3ccccn3)ccc12` [GW440139B], for which the “RA [%] at 100 µM MurC” value in assay [1] (Table S1, PKIS screening) is on record as 73%. Besides, the “RA [%] at 100 µM MurF” value in assay [2] is reported as 66%. The “RA [%] at 100 µM MurD” value in assay [3] is given as 73.

With SB-739245-AC, the “RA [%] at 100 µM MurC” value in assay [1] (Table S1, PKIS screening) worked out at 61%. Moreover, the “RA [%] at 100 µM MurF” value in assay [2] was determined as 95%. Further, the “RA [%] at 100 µM MurD” value in assay [3] is 99%.

As to `CCS(=O)(=O)c1ccc(OC)c(Nc2ncc(-c3cccc(-c4ccccc4F)c3)o2)c1` [GW678313X], the remaining activity at 100 µM came to 87% in assay [1] (setting [4]), 82% in assay [2] and 64% in assay [3].

As for `COc1ccccc1-c1cc(/C=C2\C(=O)Nc3ncc(Br)cc32)cc(Br)c1O` [GW442130X], the values for the remaining activity at 100 µM in assay [1] (setting [4]), in assay [2] and in assay [3] were 100%, 67% and 84%, respectively.

For the molecule `Fc1ccc(-c2ncn(CCCN3CCOCC3)c2-c2ccncc2)cc1` [SB-210313], the remaining activity at 100 µM turned out to be 100% in assay [1] (setting [4]), 100% in assay [2] and 91% in assay [3].

Consider `c1ccc(COc2ccc(Nc3ncnc4ccc(-c5ccco5)cc34)cc2)cc1` [GW284372X], for which the remaining activity at 100 µM in assay [1] (setting [4]) is 56%; in assay [2] it was 100%; in assay [3] it was 80%.

In the case of `CN1CCN(CCCNc2nc3ccc(Oc4ccc(NC(=O)Nc5cc(C(F)(F)F)ccc5F)cc4)cc3[nH]2)CC1` [GW700494A], the figures for the remaining activity at 100 µM in assay [1] (setting [4]), in assay [2] and in assay [3] were 99%, 95% and 73%, respectively.

Consider `CC(C)COC(=O)c1ccc2c(c1)/C(=C/Nc1ccc(S(N)(=O)=O)cc1)C(=O)N2` [GW416981X], for which the remaining activity at 100 µM turned out to be 60% in assay [1] (setting [4]), 67% in assay [2] and 100% in assay [3].

As for `OCCCNc1nccc(-c2c(-c3ccc(F)cc3)nn3cc(C(F)(F)F)ccc23)n1` [GW569293E], the remaining activity at 100 µM turned out to be 54% in assay [1] (setting [4]), 72% in assay [2] and 89% in assay [3].

With `CNC(=O)c1cncc(C=Cc2ccccc2C)c1` [Compound 8], the “RA (%) MurC” value in assay [1] (setting [5]) was 100%. In assay [2] (setting [5]), the “RA (%) MurF” value came to 85%. In addition, the “RA (%) MurD” value in assay [3] came out at 91%.

In the case of `CCn1c(-c2nonc2N)nc2c(C#CC(C)(C)O)ncc(OCC3CCNCC3)c21` [GSK554170A], the remaining activity at 100 µM in assay [1] (setting [4]) turned out to be 85%; in assay [2], 96%; in assay [3] it was 89%.

For `O=S(=O)(CCOCc1ccc(-c2ccc3ncnc(Nc4ccc(OCc5cccc(F)c5)c(Cl)c4)c3c2)o1)c1ccccc1` [GW615311X], the remaining activity at 100 µM came out at 97% in assay [1] (setting [4]), 100% in assay [2] and 91% in assay [3].

With `[O-][S+]1CCN(Cc2ccc(-c3ccc4ncnc(Nc5ccc(OCc6ccccc6)c(F)c5)c4c3)o2)CC1` [GW576924A], the remaining activity at 100 µM in assay [1] (setting [4]) was found to be 39%; in assay [2], 58%; in assay [3] it was 85%.

Turning to `O=C(NCC1CC1)c1ccc(-c2cccc(C(=O)NC3CC3)c2)cc1` [GW806776X], the remaining activity at 100 µM was determined as 84% in assay [1] (setting [4]), 78% in assay [2] and 95% in assay [3].
